Molecules are shown by their SMILES. pIC50: −log10 of the molar value. Read-outs that look alike come from different tables or passages of the source.

One assay concerns the target T1, OX2 (Homo sapiens, UniProt O43614).
T1 sequence (O43614 1-444): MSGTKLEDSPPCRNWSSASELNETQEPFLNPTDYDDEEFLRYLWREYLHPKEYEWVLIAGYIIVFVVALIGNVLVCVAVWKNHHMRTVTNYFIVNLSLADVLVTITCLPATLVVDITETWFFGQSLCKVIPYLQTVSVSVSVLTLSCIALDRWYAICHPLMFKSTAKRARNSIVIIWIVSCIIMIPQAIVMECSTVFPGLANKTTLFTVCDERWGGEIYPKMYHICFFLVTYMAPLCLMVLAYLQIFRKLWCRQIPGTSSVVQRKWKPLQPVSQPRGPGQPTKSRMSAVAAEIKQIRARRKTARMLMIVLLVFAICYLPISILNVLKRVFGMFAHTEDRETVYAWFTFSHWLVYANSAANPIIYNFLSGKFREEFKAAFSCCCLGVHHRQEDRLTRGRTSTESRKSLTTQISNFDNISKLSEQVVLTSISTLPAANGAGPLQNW
As to the kind of experiment: Measurement of orexin receptor-binding ability ([125I]-OX-A, cell membranes, OX2). Also noted: expressed in transfected cells; host or cells: CHO cells (membrane preparation). Conditions: membranes of recombinant CHO cells expressing OX2, 0.2 nM [125I]-OX-A; for IC50: OX2 (IC50) nM; for pIC50: read-out: OX2 (IC50).

The target of a further assay is T2, OX1 (Homo sapiens, UniProt O43613).
T2 sequence (O43613 1-425): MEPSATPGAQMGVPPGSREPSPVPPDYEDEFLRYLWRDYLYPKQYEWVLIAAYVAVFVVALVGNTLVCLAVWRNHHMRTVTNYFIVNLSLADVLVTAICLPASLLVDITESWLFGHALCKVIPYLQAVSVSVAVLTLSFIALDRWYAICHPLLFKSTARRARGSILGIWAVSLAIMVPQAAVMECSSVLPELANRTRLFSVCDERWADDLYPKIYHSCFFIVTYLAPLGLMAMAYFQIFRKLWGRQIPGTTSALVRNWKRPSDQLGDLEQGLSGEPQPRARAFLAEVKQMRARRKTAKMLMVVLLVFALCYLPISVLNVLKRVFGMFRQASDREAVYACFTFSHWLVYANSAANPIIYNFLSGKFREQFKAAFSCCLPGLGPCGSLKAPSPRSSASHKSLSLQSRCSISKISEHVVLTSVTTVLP
Nature of the assay: Measurement of orexin receptor-binding ability ([125I]-OX-A, cell membranes, OX1). More on the design: expressed in transfected cells; host or cells: CHO cells (membrane preparation). The procedure:
1. Measurement of Orexin Receptor-Binding Ability
The assay was carried out using a 96-well Wheat Germ Agglutinin Flash Plate (PerkinElmer). The volume in a single assay well was 100 ul, and the composition of the reaction solution was as follows:
25 mM HEPES (pH 7.5), 1 mM CaCl2, 4.5 mM MgCl2, 0.5% BSA (bovine serum albumin), 0.1% sodium azide, 0.05% Tween-20, and 0.2% DMSO.
Cell membranes were prepared from recombinant CHO cells that expressed OX2 or OX1. The cell membranes were used in an amount of 5 μg protein/assay. […] Finally, the radioactivity of each well was measured using a scintillation counter (TopCount, PerkinElmer).

Where [1] appears, read: membranes of recombinant CHO cells expressing OX1, 0.2 nM [125I]-OX-A, read-out: OX1 (IC50).

Take `COc1ccnc(NC(=O)[C@@H]2C[C@@]2(COc2cnc(C)nc2C)c2ccccc2)c1` [Example 50]: at OX2, the IC50 worked out at 13 nM. The same compound had a pIC50 on OX1 of 7.92.
On to `Cc1ncc(OC[C@@]2(c3ccccc3)C[C@H]2C(=O)Nc2cc3ccccc3cn2)c(C)n1` [Example 52], for which the pIC50 at OX2 is 7.55; on OX1 (setting [1]), 7.43.
The corresponding values for `Cc1ncc(OC[C@@]2(c3ccccc3)C[C@H]2C(=O)Nc2ccc(F)nc2)c(C)n1` [Example 53] are 7.74 and 6.58.
The corresponding values for `Cc1ncc(OC[C@@]2(c3ccccc3)C[C@H]2C(=O)Nc2cnc(F)c(C)c2)c(C)n1` [Example 57] are 7.46 and 6.27.
The corresponding values for `Cc1ncc(OC[C@@]2(c3ccccc3)C[C@H]2C(=O)Nc2cnc(Br)c(C)c2)c(C)n1` [Example 58] are 7.05 and 5.71.
Consider `Cc1ncc(OC[C@@]2(c3ccccc3)C[C@H]2C(=O)Nc2cnc(Cl)c(Br)c2)c(C)n1` [Example 59], for which the pIC50 was 7.29 on OX2 and 5.85 at OX1 (setting [1]).
The corresponding values for `Cc1ncc(OC[C@@]2(c3ccccc3)C[C@H]2C(=O)Nc2cnc(Cl)c(C(F)(F)F)c2)c(C)n1` [Example 60] are 6.98 and less than 5.70.
For the compound `Cc1ncc(OC[C@@]2(c3ccccc3)C[C@H]2C(=O)Nc2cccc(F)n2)c(C)n1` [Example 68], the IC50 on OX2 came out at 56 nM. On OX1, this compound gave a pIC50 of 6.85.
The corresponding values for `Cc1ccc(NC(=O)[C@@H]2C[C@@]2(COc2cnc(C)nc2C)c2ccccc2)nc1` [Example 69] are 34 nM and 6.90.
The corresponding values for `Cc1cccc(NC(=O)[C@@H]2C[C@@]2(COc2cnc(C)nc2C)c2ccccc2)n1` [Example 70] are 41 nM and 6.15.
As to `COCc1cc(NC(=O)[C@@H]2C[C@@]2(COc2cnc(C)nc2C)c2ccccc2)ncc1F` [Example 71, (1R,2S)-2-{[(2,4-dimethylpyrimidin-5-yl)oxy]methyl}-N-[5-fluoro-4-(methoxymethyl)pyridin-2-yl]-2-phenylcyclopropanecarboxamide], the pIC50 at OX2 was 8.29; at OX1 (setting [1]), 7.28.
The corresponding values for `COc1cc(NC(=O)[C@@H]2C[C@@]2(COc2cnc(C)nc2C)c2ccccc2)ccn1` [Example 72] are 7.51 and 6.69.
Consider `Cc1ncc(OC[C@@]2(c3ccccc3)C[C@H]2C(=O)Nc2cc(F)cc(F)n2)c(C)n1` [Example 76-1, (1R,2S)-N-(4,6-difluoropyridin-2-yl)-2-{[(2,4-dimethylpyrimidin-5-yl)oxy]methyl}-2-phenylcyclopropanecarboxamide], for which the IC50 on OX2 stood at 61 nM. In addition, at OX1, the pIC50 is 6.31.
For `Cc1ncc(OC[C@@]2(c3ccccc3)C[C@H]2C(=O)Nc2cc(F)nc(F)c2)c(C)n1` [Example 76-2, (1R,2S)-N-(2,6-difluoropyridin-4-yl)-2-{[(2,4-dimethylpyrimidin-5-yl)oxy]methyl}-2-phenylcyclopropanecarboxamide], the pIC50 at OX2 was 7.33; at OX1 (setting [1]), 6.04.
Consider `Cc1ncc(OC[C@@]2(c3ccccc3)C[C@H]2C(=O)Nc2ccc(F)cc2)c(C)n1` [Example 77, (1R,2S)-2-{[(2,4-dimethylpyrimidin-5-yl)oxy]methyl}-N-(4-fluorophenyl)-2-phenylcyclopropanecarboxamide], for which the pIC50 at OX2 is 7.62; on OX1 (setting [1]), 7.39.
Turning to `Cc1ncc(OC[C@@]2(c3ccccc3)C[C@H]2C(=O)Nc2ccccc2F)c(C)n1` [Example 78], the 50% inhibitory concentration (IC50) on OX2 amounted to 94 nM. The compound also showed a pIC50 at OX1 of 6.18.
In the same order, the values of `Cc1ncc(OC[C@@]2(c3ccccc3)C[C@H]2C(=O)Nc2cccc(F)c2)c(C)n1` [Example 79] are 26 nM and 7.05.
In the same order, the values of `Cc1ncc(OC[C@@]2(c3ccccc3)C[C@H]2C(=O)Nc2cccc(C#N)c2)c(C)n1` [Example 80] are 16 nM and 7.27.

The IC50 is the concentration needed to halve the response being measured. One may read the pIC50 as −log10 of the IC50, conventionally taken in molar units.
